Key:
Type in all cases: biochemical
[1] = target: PKC theta kinase (Homo sapiens, UniProt Q04759); assay: PKC theta kinase coupled-enzyme (NADH consumption) Ki assay; details: 240 μM ATP, 18 nM PKC theta kinase, 30° C.
Description: (§1) l An assay buffer solution was prepared which consisted of 100 mM HEPES (pH 7.5), 10 mM MgCl2, 25 mM NaCl, 0.1 mM EDTA and 0.01% Brij. […] To 60 μL of this enzyme buffer, in a 384 well plate, was added 2 μL of VRT stock solution in DMSO. The mixture was allowed to equilibrate for 10 mins at 30° C. The enzyme reaction was initiated by the addition of 5 μL stock ATP solution prepared in assay buffer to a final assay concentration of 240 μM. Initial rate data was determined from the rate of change of absorbance at 340 nm (corresponding to stoichiometric consumption of NADH) using a Molecular Devices Spectramax plate reader (Sunnyvale, Calif.) over 15 mins at 30° C. […] Ki values were calculated from initial rate data by non-linear regression using the Prism software package (Prism 4.0a, Graphpad Software, San Diego, Calif.).

[2] = target: PKC delta kinase (Homo sapiens, UniProt Q05655); assay: PKC delta kinase coupled-enzyme (NADH consumption) Ki assay; details: 150 μM ATP, 46 nM PKC delta kinase, 30° C.
Description: as §1, with “An” for “l An”, “To 16” for “To 60”, “added 1” for “added 2”, “of 16” for “of 5”, “of 150” for “of 240”

[3] = target: PKC alpha kinase (Homo sapiens, UniProt P17252); assay: PKC alpha kinase coupled-enzyme (NADH consumption) Ki assay; details: 130 μM ATP, 4.5 nM PKC alpha kinase, 30° C.
Description: as §1, with “An” for “l An”, “mM EDTA, 100 μM CaCl2” for “mM EDTA”, “To 16” for “To 60”, “added 1” for “added 2”, “of 16” for “of 5”, “of 130” for “of 240”

Chain of PKC theta kinase (Q04759 whole entry): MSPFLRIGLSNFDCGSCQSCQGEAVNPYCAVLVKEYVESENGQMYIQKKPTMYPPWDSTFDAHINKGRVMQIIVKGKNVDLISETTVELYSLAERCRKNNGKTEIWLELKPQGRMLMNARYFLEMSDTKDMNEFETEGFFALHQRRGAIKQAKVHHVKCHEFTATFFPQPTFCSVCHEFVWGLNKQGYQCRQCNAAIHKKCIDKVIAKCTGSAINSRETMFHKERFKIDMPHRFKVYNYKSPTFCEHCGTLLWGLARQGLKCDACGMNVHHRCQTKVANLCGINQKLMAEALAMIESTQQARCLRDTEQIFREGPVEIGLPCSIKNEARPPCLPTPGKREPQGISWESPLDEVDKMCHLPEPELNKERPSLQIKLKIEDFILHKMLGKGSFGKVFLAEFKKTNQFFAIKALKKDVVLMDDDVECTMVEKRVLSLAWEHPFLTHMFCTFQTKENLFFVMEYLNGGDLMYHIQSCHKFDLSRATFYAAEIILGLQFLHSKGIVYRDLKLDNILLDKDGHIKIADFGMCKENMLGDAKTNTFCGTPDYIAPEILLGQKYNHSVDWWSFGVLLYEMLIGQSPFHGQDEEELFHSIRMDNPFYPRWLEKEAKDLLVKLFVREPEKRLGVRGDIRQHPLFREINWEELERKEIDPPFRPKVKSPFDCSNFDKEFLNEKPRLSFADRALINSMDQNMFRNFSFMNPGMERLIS
Chain of PKC delta kinase (Q05655 whole entry): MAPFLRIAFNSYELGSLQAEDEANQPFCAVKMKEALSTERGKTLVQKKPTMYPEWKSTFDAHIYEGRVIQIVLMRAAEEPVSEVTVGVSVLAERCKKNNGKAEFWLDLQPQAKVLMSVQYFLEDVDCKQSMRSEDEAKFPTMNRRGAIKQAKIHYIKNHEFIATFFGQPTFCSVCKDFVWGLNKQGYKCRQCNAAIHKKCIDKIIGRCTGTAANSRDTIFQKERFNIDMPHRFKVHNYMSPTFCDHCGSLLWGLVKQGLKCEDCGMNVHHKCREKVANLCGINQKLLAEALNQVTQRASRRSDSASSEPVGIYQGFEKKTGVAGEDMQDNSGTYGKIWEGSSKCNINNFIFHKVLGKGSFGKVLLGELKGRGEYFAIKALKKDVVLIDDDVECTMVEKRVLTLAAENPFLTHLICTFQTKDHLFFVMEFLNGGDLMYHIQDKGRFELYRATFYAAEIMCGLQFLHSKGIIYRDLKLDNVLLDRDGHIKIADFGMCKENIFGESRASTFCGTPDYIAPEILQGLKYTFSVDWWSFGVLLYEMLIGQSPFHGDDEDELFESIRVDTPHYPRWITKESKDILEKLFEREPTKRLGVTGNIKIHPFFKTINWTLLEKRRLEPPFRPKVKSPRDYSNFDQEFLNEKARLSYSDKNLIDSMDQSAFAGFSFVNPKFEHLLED

Structure (SMILES) | Ki [1] [nM] | Ki [2] [nM] | Ki [3] [nM]
Cc1cn(C2CCNCC2)nc1-c1n[nH]c2ncccc12 [Compound 5, 3-(4-methyl-1-(piperidin-4-yl)-1H-pyrazol-3-yl)-1H-pyrazolo[3,4-b]pyridine] | > 700 | > 2000 | > 1250
Cc1sc(N2CCCNCC2)nc1-c1n[nH]c2ncccc12 [Compound 1] | > 2800 |  | 
Cc1sc(N2CCN[C@@H](CC(C)C)C2)nc1-c1n[nH]c2ncccc12 [Compound 2] | < 500 | > 2000 | > 1250
CC(C)C[C@H]1CN(c2cn(C)c(-c3n[nH]c4ncccc34)n2)CCN1 [Compound 6, 3-(4-((S)-3-isobutylpiperazin-1-yl)-1-methyl-1H-imidazol-2-yl)-1H-pyrazolo[3,4-b]pyridine] | > 700 | > 2000 | > 1250
c1cnc2[nH]nc(-c3nn(C4CCNCC4)c4ccccc34)c2c1 [Compound 4, 3-(1-(piperidin-4-yl)-1H-indazol-3-yl)-1H-pyrazolo[3,4-b]pyridine] | < 500 | < 2800 | > 1250
CC(C)C[C@H]1CN(c2csc(-c3n[nH]c4ncccc34)n2)CCN1 [Compound 3, (S)-4-(3-isobutylpiperazin-1-yl)-2-(1H-pyrazolo[3,4-b]pyridin-3-yl)thiazole] | < 50 | < 2800 | > 1250

Reference: patent US8563576B2 (Vertex Pharmaceuticals Incorporated, priority 2008, dated 2013)
